Tested on: B16 melanoma cells
Experiment: Caspase-3 activity assay (EnzChek Caspase-3 Assay Kit), caspase-3 induction in tumor cells; further: test concentration or dose not given here
Type: cell-based, mouse
Details: for Caspase-3 induction, Normalized to Formula (III) (%): relative to compound of Formula (III)
Summary of the method: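 B16 melanoma cells exposed to compounds for 24 h, lysed on ice 30 min, and lysate incubated with Z-DEVD-R110 substrate about 30 min at room temperature. Fluorescence read at ~496/520 nm against untreated-cell and no-enzyme controls; caspase-3 induction serves as surrogate for GrB activity from Sb9 inhibition.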

| Structure (SMILES) | Ratio of caspase-3 activity to Formula (III) | Caspase-3 induction, Normalized to Formula (III) (%) |
| --- | --- | --- |
| CCc1ccc(CN(C)C(=O)c2ccc3oc(-c4cccc(F)c4)nc3c2)nc1 [N-[(5-ethyl-2-pyridinyl)methyl]-2-(3-fluorophenyl)-N-methyl-1,3-benzoxazole-5-carboxamide] | 0.1324 | – |
| O=C(NCc1ccccc1)c1ccc2nc(C(F)(F)C(F)(F)F)oc2c1 [N-benzyl-2-(1,1,2,2,2-pentafluoroethyl)-1,3-benzoxazole-6-carboxamide] | – | −48.3904% |
| O=C(NCc1ccccc1)c1ccc2nc(-c3cc(Cl)cc(Cl)c3)oc2c1 [N-benzyl-2-(3,5-dichlorophenyl)-1,3-benzoxazole-6-carboxamide] | – | −36.0528% |
| CN(C)c1nc2c(C(=O)NCc3ccccc3)cccc2o1 [N-benzyl-2-(dimethylamino)-1,3-benzoxazole-4-carboxamide] | – | 61.2163% |
| CN(C)c1nc2cccc(C(=O)NCc3ccccc3)c2o1 [N-benzyl-2-(dimethylamino)-1,3-benzoxazole-7-carboxamide] | – | −26.8974% |
| O=C(NCc1ccccc1)c1ccc2nc(C3CCCO3)oc2c1 (stereo not shown) [N-benzyl-2-(oxolan-2-yl)-1,3-benzoxazole-6-carboxamide] | – | −34.6335% |
| O=C(NCc1ccccc1)c1ccc2nc(C3CCCCC3)oc2c1 [N-benzyl-2-cyclohexyl-1,3-benzoxazole-6-carboxamide] | – | −61.2418% |
| O=C(NCc1ccccc1)c1ccc2nc(C3CC3)oc2c1 [N-benzyl-2-cyclopropyl-1,3-benzoxazole-6-carboxamide] | – | −32.882% |
| Cc1nc2c(C(=O)NCc3ccccc3)cccc2o1 [N-benzyl-2-methyl-1,3-benzoxazole-4-carboxamide] | – | −46.2057% |
| O=C(NCc1ccccc1)c1ccc2nc(S)oc2c1 [N-benzyl-2-sulfanyl-1,3-benzoxazole-6-carboxamide] | – | −17.7286% |
| Cc1cc(O)c(O)cc1C(=O)NCc1ccccc1 [N-benzyl-4,5-dihydroxy-2-methylbenzamide] | – | −43.6184% |
| CCOc1ccc(C(=O)NCc2ccccc2)cc1O [N-benzyl-4-ethoxy-3-hydroxybenzamide] | – | 19.0685% |
| COc1cc(C(=O)NCc2ccccc2)cc(OC)c1O [N-benzyl-4-hydroxy-3,5-dimethoxybenzamide] | – | −17.7065% |
| O=C(NCc1ccccc1)c1cc2c(cc1O)OCO2 [N-benzyl-6-hydroxy-2H-1,3-benzodioxole-5-carboxamide] | – | −9.366% |
| O=C(NC1CCC1)c1ccc2oc(-c3ccc(C(F)(F)F)cc3)nc2c1 [N-cyclobutyl-2-[4-(trifluoromethyl)phenyl]-1,3-benzoxazole-5-carboxamide] | 1.28 | – |
| CN(C)c1nc2c(C(=O)NC3CCCC3)cccc2o1 [N-cyclopentyl-2-(dimethylamino)-1,3-benzoxazole-4-carboxamide] | – | −20.9929% |
| CN(C)c1nc2cccc(C(=O)NC3CCCC3)c2o1 [N-cyclopentyl-2-(dimethylamino)-1,3-benzoxazole-7-carboxamide] | – | −47.699% |
| O=C(NC1CCCC1)c1ccc2nc(C3CC3)oc2c1 [N-cyclopentyl-2-cyclopropyl-1,3-benzoxazole-6-carboxamide] | – | −21.5068% |
| Cc1nc2c(C(=O)NC3CCCC3)cccc2o1 [N-cyclopentyl-2-methyl-1,3-benzoxazole-4-carboxamide] | – | −30.2879% |
| O=C(NC1CCCC1)c1ccc2nc(S)oc2c1 [N-cyclopentyl-2-sulfanyl-1,3-benzoxazole-6-carboxamide] | – | −81.3264% |
| Cc1cc(O)c(O)cc1C(=O)NC1CCCC1 [N-cyclopentyl-4,5-dihydroxy-2-methylbenzamide] | – | −66.5183% |
| CCOc1ccc(C(=O)NC2CCCC2)cc1O [N-cyclopentyl-4-ethoxy-3-hydroxybenzamide] | – | 4.1370% |
| COc1cc(C(=O)NC2CCCC2)cc(OC)c1O [N-cyclopentyl-4-hydroxy-3,5-dimethoxybenzamide] | – | −24.5783% |

| Structure (SMILES) | Ratio of caspase-3 activity to Formula (III) | Caspase-3 induction, Normalized to Formula (III) (%) |
| --- | --- | --- |
| O=C(NC1CCCC1)c1cc2c(cc1O)OCO2 [N-cyclopentyl-6-hydroxy-2H-1,3-benzodioxole-5-carboxamide] | – | −61.6444% |
| CCN(CCn1cccn1)C(=O)c1ccc2nc(-c3cccc(OC)c3)oc2c1 [N-ethyl-2-(3-methoxyphenyl)-N-[2-(1H-pyrazol-1-yl)ethyl]-1,3-benzoxazole-6-carboxamide] | 0.1363 | – |
| CCN(C)C(=O)c1cc(O)c(O)cc1C [N-ethyl-4,5-dihydroxy-N,2-dimethylbenzamide] | – | −33.2116% |
| CCN(C)C(=O)c1cc(OC)c(O)c(OC)c1 [N-ethyl-4-hydroxy-3,5-dimethoxy-N-methylbenzamide] | – | −34.6356% |
| CCN(C)C(=O)c1ccc(O)c(OC)c1 [N-ethyl-4-hydroxy-3-methoxy-N-methylbenzamide] | – | −33.3917% |
| CCN(C)C(=O)c1cc2c(cc1O)OCO2 [N-ethyl-6-hydroxy-N-methyl-2H-1,3-benzodioxole-5-carboxamide] | – | −3.424% |
| CCN(C)C(=O)c1ccc2oc(C)nc2c1 [N-ethyl-N,2-dimethyl-1,3-benzoxazole-5-carboxamide] | – | −65.6678% |
| CCN(CCO)C(=O)c1ccc2oc(-c3ccc(C(F)(F)F)cc3)nc2c1 [N-ethyl-N-(2-hydroxyethyl)-2-[4-(trifluoromethyl)phenyl]-1,3-benzoxazole-5-carboxamide] | 0.1437 | – |
| CCN(C)C(=O)c1ccc2ocnc2c1 [N-ethyl-N-methyl-1,3-benzoxazole-5-carboxamide] | – | −74.9828% |
| CCN(C)C(=O)c1ccc2nc(C(F)(F)C(F)(F)F)oc2c1 [N-ethyl-N-methyl-2-(1,1,2,2,2-pentafluoroethyl)-1,3-benzoxazole-6-carboxamide] | – | −28.449% |
| CCN(C)C(=O)c1ccc2nc(C3CCCO3)oc2c1 (stereo not shown) [N-ethyl-N-methyl-2-(oxolan-2-yl)-1,3-benzoxazole-6-carboxamide] | – | 8.3538% |
| CCN(C)C(=O)c1ccc2oc(=O)[nH]c2c1 [N-ethyl-N-methyl-2-oxo-2,3-dihydro-1,3-benzoxazole-5-carboxamide] | – | −21.7056% |
| CCN(C)C(=O)c1ccc2nc(-c3ccccc3)oc2c1 [N-ethyl-N-methyl-2-phenyl-1,3-benzoxazole-6-carboxamide] | – | −76.883% |
| CCN(C)C(=O)c1ccc2nc(S)oc2c1 [N-ethyl-N-methyl-2-sulfanyl-1,3-benzoxazole-6-carboxamide] | – | −6.201% |
| CC(C)NC(=O)c1ccc2oc(-c3ccc(C(F)(F)F)cc3)nc2c1 [N-isopropyl-2-[4-(trifluoromethyl)phenyl]-1,3-benzoxazole-5-carboxamide] | 0.2847 | – |
| CN(Cc1ccn[nH]1)C(=O)c1ccc2oc(-c3ccc(C(F)(F)F)cc3)nc2c1 [N-methyl-N-(1H-pyrazol-5-ylmethyl)-2-[4-(trifluoromethyl)phenyl]-1,3-benzoxazole-5-carboxamide] | 0.1414 | – |
| CN(Cc1cccnc1)C(=O)c1ccc2oc(-c3ccc(C(F)(F)F)cc3)nc2c1 [N-methyl-N-(3-pyridinylmethyl)-2-[4-(trifluoromethyl)phenyl]-1,3-benzoxazole-5-carboxamide] | 0.1669 | – |
| CN(Cc1ccncn1)C(=O)c1ccc2oc(-c3ccc(C(F)(F)F)cc3)nc2c1 [N-methyl-N-(4-pyrimidinylmethyl)-2-[4-(trifluoromethyl)phenyl]-1,3-benzoxazole-5-carboxamide] | 0.1443 | – |
| CN(CCN1CCOCC1)C(=O)c1ccc2oc(-c3ccc(C(F)(F)F)cc3)nc2c1 [N-methyl-N-[2-(4-morpholinyl)ethyl]-2-[4-(trifluoromethyl)phenyl]-1,3-benzoxazole-5-carboxamide] | 0.1327 | – |
| Cc1c[nH]c(CN(C)C(=O)c2ccc3oc(-c4ccc(C(F)(F)F)cc4)nc3c2)n1 [N-methyl-N-[(4-methyl-1H-imidazol-2-yl)methyl]-2-[4-(trifluoromethyl)phenyl]-1,3-benzoxazole-5-carboxamide] | 0.1327 | – |
| O=C(c1ccc2oc(-c3ccc(C(F)(F)F)cc3)nc2c1)N1CCC[C@H]1CO [[(2S)-1-({2-[4-(trifluoromethyl)phenyl]-1,3-benzoxazol-5-yl}carbonyl)-2-pyrrolidinyl]methanol] | 0.1353 | – |
| O=C(c1ccc2nc(-c3ccccc3)oc2c1)N1C[C@@H](F)C[C@H]1CO [[(2S,4S)-4-fluoro-1-(2-phenyl-1,3-benzoxazole-6-carbonyl)pyrrolidin-2-yl]methanol] | 0.09723 | – |
| CCOC(=O)C1CCCN(C(=O)c2ccc3nc(-c4cccc(OC)c4)oc3c2)C1 (stereo not shown) [ethyl 1-{[2-(3-methoxyphenyl)-1,3-benzoxazol-6-yl]carbonyl}-3-piperidinecarboxylate] | 0.1363 | – |

From patent US20230255906A1, “Targeting Serpin B9 in Cancer” (The Brigham and Women`s Hospital, Inc., priority 2020, published 2023)
